Measured values as given in publication PMC9890130 (Clinical cancer research : an official journal of the …, 2023).
Bridge positions count the residues as written; N and C are the ends. Square brackets hold non-standard residues; d marks the D form. Peptide text beside a SMILES is read from it. * marks the point of attachment. DOTA = O=C(O)CN1CCN(CC(=O)O)CCN(CC(=O)*)CCN(CC(=O)O)CC1; Trp(1-CH2COOH) = N[C@@H](Cc1cn(CC(=O)O)c2ccccc12)C(=O)O; Hyp = O=C(O)[C@@H]1C[C@@H](O)CN1; NMeNle = CCCC[C@H](NC)C(=O)O; NMeA = CN[C@@H](C)C(=O)O

Key:
[1] = tested on: MDAMB231, BFTC909, SUM149, and SCaBER cells; test: In vitro binding assay, blocking with non-radioactive DK223; assay type: cell-based, human; conditions: 1 μM non-radioactive DK223; P<0.0001
Human PD-L1 Fc-tagged = Human PD-L1 Fc-tagged (Homo sapiens, UniProt Q9NZQ7); test: Surface plasmon resonance; assay type: binding; conditions: read-out: KD (affinity for PD-L1); SPR, Biacore T200, CM5 chip, 25°C, 1:1 kinetics model; n=3
[2] = predicted residence time in human organ from mouse pharmacokinetic data
in vivo = conditions: NSG, mouse, iv, total radioactivity
MDAMB231 xenografts [3] = test: Ex vivo biodistribution in mice with MDAMB231 xenografts; conditions: NSG mice bearing MDAMB231 tumors, n=4-5
[4] = Ex vivo biodistribution in SCaBER xenografts; set-up: species or system NSG mice; conditions: NSG, mouse, tumor, iv, 50 uCi, total radioactivity
SUM149 cells = test: In vitro binding assay with [^68Ga]Ga-DK223; assay type: cell-based, human; conditions: 1×10^6 cells, ~1 μCi, 45 min at 4°C
SCaBER cells = test: In vitro binding assay with [^68Ga]Ga-DK223; assay type: cell-based, human; conditions: 1×10^6 cells, ~1 μCi, 45 min at 4°C
[5] = In vivo stability of [^68Ga]Ga-DK223; set-up: species or system mice; conditions: urine collected at 60 min after i.v. injection, radio-HPLC; n=3
MDAMB231 xenografts [6] = conditions: NSG, mouse, in vivo, iv, 1 h
[7] = Ex vivo biodistribution in BFTC909 xenografts; set-up: species or system NSG mice; conditions: NSG, mouse, tumor, iv, 50 uCi, total radioactivity
[8] = %ID/g [^68Ga]Ga-DK223, Adrenals
[9] = %ID/g [^68Ga]Ga-DK223, Pancreas

For `CCCC[C@H]1C(=O)N(C)[C@@H](CCCC)C(=O)N[C@@H](CCCCNC(=O)CN2CCN(CC(=O)O)CCN(CC(=O)O)CCN(CC(=O)O)CC2)C(=O)N[C@H](C(=O)NCC(N)=O)CSCC(=O)N[C@@H](Cc2ccc(O)cc2)C(=O)N(C)[C@@H](C)C(=O)N[C@@H](CC(N)=O)C(=O)N2CCC[C@H]2C(=O)N[C@@H](Cc2c[nH]cn2)C(=O)N[C@@H](CCC(=O)O)C(=O)N2C[C@H](O)C[C@H]2C(=O)N[C@@H](Cc2c[nH]c3ccccc23)C(=O)N[C@@H](CO)C(=O)N[C@@H](Cc2cn(CC(=O)O)c3ccccc23)C(=O)N1C` [DK223] ({CH2CO}-Y[NMeA]NPHE[Hyp]WS[Trp(1-CH2COOH)][NMeNle][NMeNle]K(DOTA)CG-NH2; thioether N-14), the “[^68Ga]Ga-DK223 uptake in cells incubated with non-radioactive DK223” value [1] was “significantly reduced” and the Kd (Human PD-L1 Fc-tagged) was 1.01 ± 0.83 nM.
With `CCCC[C@H]1C(=O)N(C)[C@@H](CCCC)C(=O)N[C@@H](CCCCNC(=O)CN2CCN(CC(=O)O)CCN(CC(=O)O)CCN(CC(=O)O)CC2)C(=O)N[C@H](C(=O)NCC(N)=O)CSCC(=O)N[C@@H](Cc2ccc(O)cc2)C(=O)N(C)[C@@H](C)C(=O)N[C@@H](CC(N)=O)C(=O)N2CCC[C@H]2C(=O)N[C@@H](Cc2c[nH]cn2)C(=O)N[C@@H](CCC(=O)O)C(=O)N2C[C@H](O)C[C@H]2C(=O)N[C@@H](Cc2c[nH]c3ccccc23)C(=O)N[C@@H](CO)C(=O)N[C@@H](Cc2cn(CC(=O)O)c3ccccc23)C(=O)N1C` [[^68Ga]Ga-DK223, metal not drawn] ({CH2CO}-Y[NMeA]NPHE[Hyp]WS[Trp(1-CH2COOH)][NMeNle][NMeNle]K(DOTA)CG-NH2; thioether N-14) the “Residence time, Adrenals” value [2] was 0.00014 h, the “Residence time, Bladder” value [2] was 0.00187 h and the “Residence time, Blood” value [2] was 0.1753 h. The “Residence time, Brain” value [2] was 0.00118 h, the “Residence time, Femur” value [2] was 0.03956 h and the “Residence time, Heart” value [2] was 0.0151 h. The “Residence time, Kidney” value [2] was 0.0337 h, the “Residence time, Large Intestine (with contents)” value [2] was 0.00099 h and the “Residence time, Liver” value [2] was 0.01633 h. The “Residence time, Lung” value [2] was 0.03245 h, the “Residence time, Muscle” value [2] was 0.06168 h and the “Residence time, Ovaries” value [2] was 0.00011 h. For the same compound, the “Residence time, Pancreas” value [2] was 0.00052 h, the “Residence time, Small Intestine (with contents)” value [2] was 0.00453 h and the “Residence time, Spleen” value [2] was 0.00129 h. For the same compound, the “Residence time, Stomach (with contents)” value [2] was 0.00072 h, the “Residence time, Thymus” value [2] was 0.00047 h and the “Residence time, Uterus” value [2] was 0.00114 h. For the same compound, the tissue uptake at 0.5 h (in vivo; [8]) was 2.22 ± 0.19 %ID/g, the tissue uptake at 1.5 h (in vivo; [8]) was 0.18 ± 0.03 %ID/g and the tissue uptake at 3 h (in vivo; [8]) was 0.16 ± 0.11 %ID/g. The tissue uptake at 0.5 h (in vivo; %ID/g [^68Ga]Ga-DK223, Bladder) was 4.09 ± 0.49 %ID/g, the tissue uptake at 1 h (in vivo; %ID/g [^68Ga]Ga-DK223, Bladder) was 1.42 ± 0.12 %ID/g and the tissue uptake at 1.5 h (in vivo; %ID/g [^68Ga]Ga-DK223, Bladder) was 0.78 ± 0.07 %ID/g. The tissue uptake at 3 h (in vivo; %ID/g [^68Ga]Ga-DK223, Bladder) was 1.28 ± 0.32 %ID/g, the tissue uptake at 0.5 h (in vivo; %ID/g [^68Ga]Ga-DK223, Blood) was 7.63 ± 0.87 %ID/g and the tissue uptake at 1.5 h (in vivo; %ID/g [^68Ga]Ga-DK223, Blood) was 2.14 ± 0.08 %ID/g. It also gave a tissue uptake at 3 h (in vivo; %ID/g [^68Ga]Ga-DK223, Blood) of 1.72 ± 0.04 %ID/g, a tissue uptake at 0.5 h (in vivo; %ID/g [^68Ga]Ga-DK223, Brain) of 0.22 ± 0.05 %ID/g and a tissue uptake at 1.5 h (in vivo; %ID/g [^68Ga]Ga-DK223, Brain) of 0.05 ± 0.01 %ID/g. For the same compound, the tissue uptake at 3 h (in vivo; %ID/g [^68Ga]Ga-DK223, Brain) was 0.04 ± 0.01 %ID/g, the tissue uptake at 0.5 h (in vivo; %ID/g [^68Ga]Ga-DK223, Femur) was 1.74 ± 0.14 %ID/g and the tissue uptake at 1.5 h (in vivo; %ID/g [^68Ga]Ga-DK223, Femur) was 0.59 ± 0.04 %ID/g. The tissue uptake at 3 h (in vivo; %ID/g [^68Ga]Ga-DK223, Femur) was 0.64 ± 0.07 %ID/g, the tissue uptake at 0.5 h (in vivo; %ID/g [^68Ga]Ga-DK223, Heart) was 2.49 ± 0.3 %ID/g and the tissue uptake at 1.5 h (in vivo; %ID/g [^68Ga]Ga-DK223, Heart) was 0.73 ± 0.03 %ID/g. It also gave a tissue uptake at 3 h (in vivo; %ID/g [^68Ga]Ga-DK223, Heart) of 0.46 ± 0.03 %ID/g, a tissue uptake at 0.5 h (in vivo; %ID/g [^68Ga]Ga-DK223, Liver) of 2.85 ± 0.41 %ID/g and a tissue uptake at 1 h (in vivo; %ID/g [^68Ga]Ga-DK223, Liver) of 1.31 ± 0.08 %ID/g. It also gave a tissue uptake at 1.5 h (in vivo; %ID/g [^68Ga]Ga-DK223, Liver) of 0.91 ± 0.11 %ID/g, a tissue uptake at 3 h (in vivo; %ID/g [^68Ga]Ga-DK223, Liver) of 0.82 ± 0.09 %ID/g and a tissue uptake at 0.5 h (in vivo; %ID/g [^68Ga]Ga-DK223, Lung) of 11 ± 2.29 %ID/g. It also gave a tissue uptake at 1.5 h (in vivo; %ID/g [^68Ga]Ga-DK223, Lung) of 5.3 ± 1.68 %ID/g, a tissue uptake at 3 h (in vivo; %ID/g [^68Ga]Ga-DK223, Lung) of 2.98 ± 0.71 %ID/g and a tissue uptake at 0.5 h (in vivo; %ID/g [^68Ga]Ga-DK223, Muscle) of 0.85 ± 0.09 %ID/g. For the same compound, the tissue uptake at 1.5 h (in vivo; %ID/g [^68Ga]Ga-DK223, Muscle) was 0.17 ± 0.01 %ID/g, the tissue uptake at 3 h (in vivo; %ID/g [^68Ga]Ga-DK223, Muscle) was 0.08 ± 0.02 %ID/g and the tissue uptake at 0.5 h (in vivo; [9]) was 2.01 ± 0.54 %ID/g. It also gave a tissue uptake at 1 h (in vivo; [9]) of 0.45 ± 0.05 %ID/g, a tissue uptake at 1.5 h (in vivo; [9]) of 0.39 ± 0.01 %ID/g and a tissue uptake at 3 h (in vivo; [9]) of 0.24 ± 0.03 %ID/g. For the same compound, the tissue uptake at 0.5 h (in vivo; %ID/g [^68Ga]Ga-DK223, Spleen) was 2.45 ± 0.51 %ID/g, the tissue uptake at 1 h (in vivo; %ID/g [^68Ga]Ga-DK223, Spleen) was 1.05 ± 0.07 %ID/g and the tissue uptake at 1.5 h (in vivo; %ID/g [^68Ga]Ga-DK223, Spleen) was 0.71 ± 0.06 %ID/g. For the same compound, the tissue uptake at 3 h (in vivo; %ID/g [^68Ga]Ga-DK223, Spleen) was 0.58 ± 0.03 %ID/g, the tissue uptake at 0.5 h (in vivo; %ID/g [^68Ga]Ga-DK223, Thymus) was 7.02 ± 1.06 %ID/g and the tissue uptake at 1 h (in vivo; %ID/g [^68Ga]Ga-DK223, Thymus) was 3.53 ± 0.27 %ID/g. The tissue uptake at 1.5 h (in vivo; %ID/g [^68Ga]Ga-DK223, Thymus) was 1.26 ± 0.47 %ID/g, the tissue uptake at 3 h (in vivo; %ID/g [^68Ga]Ga-DK223, Thymus) was 1.52 ± 0.75 %ID/g and the tissue uptake at 0.5 h (in vivo; %ID/g [^68Ga]Ga-DK223, Tumor) was 14.3 ± 1.54 %ID/g. The tissue uptake at 1.5 h (in vivo; %ID/g [^68Ga]Ga-DK223, Tumor) was 12.2 ± 0.32 %ID/g, the tissue uptake at 3 h (in vivo; %ID/g [^68Ga]Ga-DK223, Tumor) was 11.6 ± 0.79 %ID/g and the “%ID/g [^68Ga]Ga-DK223, Kidney” value (MDAMB231 xenografts [3]; 5 min after injection) was 28.59 ± 2.4 %ID/g. For the same compound, the “%ID/g [^68Ga]Ga-DK223, Kidney” value (MDAMB231 xenografts [3]; 30 min after injection) was 24.4 ± 1.5 %ID/g, the “%ID/g [^68Ga]Ga-DK223, Kidney” value (MDAMB231 xenografts [3]; 60 min after injection) was 22.99 ± 2.01 %ID/g and the “%ID/g [^68Ga]Ga-DK223, Kidney” value (MDAMB231 xenografts [3]; 90 min after injection) was 16.23 ± 0.8 %ID/g. The “%ID/g [^68Ga]Ga-DK223, Kidney” value (MDAMB231 xenografts [3]; 180 min after injection) was 19.14 ± 1.32 %ID/g, the tissue uptake at 1 h [4] was < 3 %ID/g and the in vitro uptake (SUM149 cells) was “less than 2 %IA”. For the same compound, the in vitro uptake (SCaBER cells) was “less than 2 %IA”, the “in vivo stability, urine” value [5] was “no metabolic cleavage” and the “%ID/g [^68Ga]Ga-DK223, Adrenals” value (MDAMB231 xenografts [6]) was 4.74 ± 3.64 %ID/g. For the same compound, the “%ID/g [^68Ga]Ga-DK223, Blood” value (MDAMB231 xenografts [6]) was 3.05 ± 0.11 %ID/g, the “%ID/g [^68Ga]Ga-DK223, Femur” value (MDAMB231 xenografts [6]) was 0.89 ± 0.06 %ID/g and the “%ID/g [^68Ga]Ga-DK223, Heart” value (MDAMB231 xenografts [6]) was 0.95 ± 0.07 %ID/g. For the same compound, the “%ID/g [^68Ga]Ga-DK223, Lung” value (MDAMB231 xenografts [6]) was 4.7 ± 0.42 %ID/g, the “%ID/g [^68Ga]Ga-DK223, Muscle” value (MDAMB231 xenografts [6]) was 0.36 ± 0.04 %ID/g and the “%ID/g [^68Ga]Ga-DK223, Tumor” value (MDAMB231 xenografts [6]) was 15.21 ± 1.43 %ID/g. For the same compound, the “%ID/g [^68Ga]Ga-DK223, Ovaries” value (MDAMB231 xenografts [6]; female) was 0.93 ± 0.08 %ID/g and the tissue uptake at 1 h [7] was 21 ± 2.1 %ID/g.
